Experiments:
Ovis aries = species: Ovis aries; assay: Selectivity index, ratio of IC50 for inhibition of ovine COX-1 to IC50 for inhibition of ovine COX-2
[1] = Selectivity index, ratio of IC50 for COX-2 (unknown origin) to IC50 for COX-1 (unknown origin)
Rattus norvegicus [2] = assay: Acute ulcerogenic activity in Albino Wistar rat assessed as ulcer index at 18 mg/kg via oral gavage once daily for 3 days; type: toxicity, organism-based; details: in vivo, 72 h, time 3 day
[3] = Inhibition of soya bean 15-LOX by enzyme immune assay; parameters: species or system Glycine max
Rattus norvegicus [4] = assay: Antiinflammatory activity in formalin-induced paw edema in Wistar albino rat model assessed as reduction in paw edema volume at 18 mg/kg, po administered once daily via gavage by 7 days; type: functional; parameters: scale not given: the % may be the effect or the level left; details: time 7 day

Row | Ratio IC50 (Ovis aries) | Compound | also measured
1 | 247 | CSc1nn(C(=O)c2cnn(-c3ccc(S(C)(=O)=O)cc3)c2N)c(N)c1C#N | –
2 | – | COc1ccc2cc(C(C)C(=O)O/N=C(\N)c3ccc(Cl)cc3)ccc2c1 (configuration not stated) | Ratio IC50 [1]: 13
3 | – | COc1ccc(-n2c(-c3ccc(C)cc3)cs/c2=N\NC(=O)Cn2nc(C)cc2-c2ccc(Cl)cc2)cc1 | UI (Rattus norvegicus [2]): 0
4 | 247 | CSc1nn(C(=O)c2c(C)nn(-c3ccc(S(N)(=O)=O)cc3)c2N)c(N)c1C#N | –
5 | 247 | CCOC(=O)c1c(C)nn(C(=O)c2cnn(-c3ccc(S(C)(=O)=O)cc3)c2N)c1N | –
6 | – | Cc1ccc(Cl)c(Nc2ccccc2C(=O)O)c1Cl | IC50 [3]: 5.64 µM
7 | – | CCCn1c(-c2ccc(Cl)cc2)cs/c1=N\NC(=O)Cn1nc(C)cc1C | Activity (Rattus norvegicus [4]): 97.3%
8 | – | COc1ccc(/C(N)=N/OC(=O)C(C)c2ccc3cc(OC)ccc3c2)cc1 (configuration not stated) | Ratio IC50 [1]: 13
9 | 247 | Cc1cc(C)n(C(=O)c2cnn(-c3ccc(S(C)(=O)=O)cc3)c2N)n1 | –
10 | 247 | CCOC(=O)c1cnn(C(=O)c2cnn(-c3ccc(S(C)(=O)=O)cc3)c2N)c1N | –
11 | – | COc1ccc2cc(C(C)C(=O)O/N=C(\N)c3ccc(OC)c(OC)c3)ccc2c1 (configuration not stated) | Ratio IC50 [1]: 13
12 | 247 | CCOC(=O)c1cnn(C(=O)c2c(C)nn(-c3ccc(S(C)(=O)=O)cc3)c2N)c1N | –

Reference: ChEMBL document CHEMBL6092136, “Design, classification, and adverse effects of NSAIDs: A review on recent advancements” (Bioorg Med Chem, 2024)
